In US11771738B2 (Zoetis Services LLC, priority 2018, dated 2023):
Where two headings read alike, the source gives them in different places. Marks after values point to notes of the source that are not given here.

Columns and labels:
Assay type in all cases: cell-based
[1] = tested on: microfilariae of Dirofilaria immitis; test: Dirofilaria immitis, Microfilaria (DiMf) In Vitro Assay; conditions: for minimal effective concentration: Dirofilaria immitis, 72 h, read-out: DiMf MED, Minimum Effective Dose, D. immitis microfilariae motility, in vitro
D. immitis L4 larvae = test: Dirofilaria immitis, L4 Stage (DiL4) In Vitro Assay; conditions: for DiMf/DiL4: larval stage selectivity, ratio of DiMf MED to DiL4 MED; for minimal effective concentration: Dirofilaria immitis, 72 h, read-out: DiL4 MED, Minimum Effective Dose, D. immitis L4 larvae motility, in vitro
[2] = tested on: third stage larvae of Haemonchus contortus; test: Haemonchus contortus, Larvae Stage 3 (HcL3) In Vitro Assay; conditions: for minimal effective concentration: Haemonchus contortus, 96 h
[3] = read-out: HcL3 MED, Haemonchus contortus third stage larvae in vitro, class mark appended to the Ex # in Table 3
[4] = read-out: HcL3 MED, Minimum Effective Dose, H. contortus third stage larvae, approximately 96 hours
[5] = read-out: HcL3 MED, approximately 96 hours incubation, multiple-resistant field isolate
[6] = read-out: HcL3 MED (symbol after Ex#), approximately 96 hours incubation, multiple-resistant field isolate

Cc1ncccc1Cc1ccc(C[C@H]2OC(=O)[C@H](CC(C)C)N(C)C(=O)[C@@H](C)OC(=O)[C@H](CC(C)C)N(C)C(=O)[C@@H](Cc3ccccc3)OC(=O)[C@H](CC(C)C)N(C)C(=O)[C@@H](C)OC(=O)[C@H](CC(C)C)N(C)C2=O)cc1 [Example 4-139]
DiMf MED ([1]; Minimum Effective Dose, D. immitis microfilariae motility, in vitro): 1 nM
DiL4 MED (D. immitis L4 larvae; Minimum Effective Dose, D. immitis L4 larvae motility, in vitro): 0.4 nM
DiMf/DiL4 (D. immitis L4 larvae): 2.5
HcL3 MED ([2]; Minimum Effective Dose, H. contortus third stage larvae, approximately 96 hours): 1 µM
HcL3 MED (symbol after Ex#) ([2]; approximately 96 hours incubation, multiple-resistant field isolate): 4-139* (Examples with an asterisk (*) have HcL3 MED values≤1 μM)

CC(C)C[C@H]1C(=O)O[C@H](Cc2ccc(Cc3sccc3Cl)cc2)C(=O)N(C)[C@@H](CC(C)C)C(=O)O[C@H](C)C(=O)N(C)[C@@H](CC(C)C)C(=O)O[C@H](Cc2ccc(Cc3sccc3Cl)cc2)C(=O)N(C)[C@@H](CC(C)C)C(=O)O[C@H](C)C(=O)N1C [Example 3-87, (3S,6R,9S,12R,15S,18R,21S,24R)-6,18-bis(4-((3-chlorothiophen-2-yl)methyl)benzyl)-3,9,15,21-tetraisobutyl-4,10,12,16,22,24-hexamethyl-1,7,13,19-tetraoxa-4,10,16,22-tetraazacyclotetracosan-2,5,8,11,14,17,20,23-octaone]
minimal effective concentration [1]: 0.1 µM
minimal effective concentration (D. immitis L4 larvae): 0.0003 µM
DiMf/DiL4 (D. immitis L4 larvae): 333
minimal effective concentration [2, 3]: < 1 µM
minimal effective concentration [2, 4]: 0.3 µM
minimal effective concentration [2, 5]: ≤ 1 µM

CC(C)C[C@H]1C(=O)O[C@H](Cc2ccc(Cc3cncc(F)c3)cc2)C(=O)N(C)[C@@H](CC(C)C)C(=O)O[C@H](C)C(=O)N(C)[C@@H](CC(C)C)C(=O)O[C@H](Cc2ccc(Cc3cncc(F)c3)cc2)C(=O)N(C)[C@@H](CC(C)C)C(=O)O[C@H](C)C(=O)N1C [Example 3-194, (3S,6R,9S,12R,15S,18R,21S,24R)-6,18-bis(4-((5-fluoropyridin-3-yl)methyl)benzyl)-3,9,15,21-tetraisobutyl-4,10,12,16,22,24-hexamethyl-1,7,13,19-tetraoxa-4,10,16,22-tetraazacyclotetracosan-2,5,8,11,14,17,20,23-octaone]
minimal effective concentration [1]: 0.001 µM
minimal effective concentration (D. immitis L4 larvae): 0.001 µM
DiMf/DiL4 (D. immitis L4 larvae): 1
minimal effective concentration [2, 4]: > 100 µM

CC(C)C[C@H]1C(=O)O[C@H](Cc2ccc(Cc3ccsc3)cc2)C(=O)N(C)[C@@H](CC(C)C)C(=O)O[C@H](C)C(=O)N(C)[C@@H](CC(C)C)C(=O)O[C@H](Cc2ccc(Cc3ccsc3)cc2)C(=O)N(C)[C@@H](CC(C)C)C(=O)O[C@H](C)C(=O)N1C [Example 3-56, (3S,6R,9S,12R,15S,18R,21S,24R)-3,9,15,21-tetraisobutyl-4,6,10,16,18,22-hexamethyl-12,24-bis(4-(thiophen-3-ylmethyl)benzyl)-1,7,13,19-tetraoxa-4,10,16,22-tetraazacyclotetracosan-2,5,8,11,14,17,20,23-octaone]
minimal effective concentration [1]: 0.1 µM
minimal effective concentration (D. immitis L4 larvae): 0.0005 µM
DiMf/DiL4 (D. immitis L4 larvae): 200
minimal effective concentration [2, 3]: < 1 µM
minimal effective concentration [2, 4]: 0.5 µM
minimal effective concentration [2, 5]: ≤ 1 µM

CC(C)C[C@H]1C(=O)O[C@H](Cc2ccc(Cc3cncnc3C(F)F)cc2)C(=O)N(C)[C@@H](CC(C)C)C(=O)O[C@H](C)C(=O)N(C)[C@@H](CC(C)C)C(=O)O[C@H](Cc2ccc(Cc3cncnc3C(F)F)cc2)C(=O)N(C)[C@@H](CC(C)C)C(=O)O[C@H](C)C(=O)N1C [Example 3-321, (3S,6R,9S,12R,15S,18R,21S,24R)-6,18-bis(4-((4-(difluoromethyl)pyrimidin-5-yl)methyl)benzyl)-3,9,15,21-tetraisobutyl-4,10,12,16,22,24-hexamethyl-1,7,13,19-tetraoxa-4,10,16,22-tetraazacyclotetracosan-2,5,8,11,14,17,20,23-octaone]
minimal effective concentration [1]: 5e-05 µM
minimal effective concentration (D. immitis L4 larvae): 2e-05 µM
DiMf/DiL4 (D. immitis L4 larvae): 2.5
minimal effective concentration [2, 3]: < 1 µM
minimal effective concentration [2, 4]: 0.3 µM
minimal effective concentration [2, 5]: ≤ 1 µM

CCOC(c1ccc(C[C@H]2OC(=O)[C@H](CC(C)C)N(C)C(=O)[C@@H](C)OC(=O)[C@H](CC(C)C)N(C)C(=O)[C@@H](Cc3ccccc3)OC(=O)[C@H](CC(C)C)N(C)C(=O)[C@@H](C)OC(=O)[C@H](CC(C)C)N(C)C2=O)cc1)c1ccc(F)c(F)c1 (stereo partly drawn) [Example 2-38, (3S,6R,9S,12R,15S,18R,21S,24R)-6-benzyl-18-(4-((3,4-difluorophenyl)(ethoxy)methyl)benzyl)-3,9,15,21-tetraisobutyl-4,10,12,16,22,24-hexamethyl-1,7,13,19-tetraoxa-4,10,16,22-tetraazacyclotetracosan-2,5,8,11,14,17,20,23-octaone]
minimal effective concentration [1]: 0.03 µM
minimal effective concentration (D. immitis L4 larvae): 0.0006 µM
DiMf/DiL4 (D. immitis L4 larvae): 50
minimal effective concentration [2, 6]: < 1 µM
minimal effective concentration [2, 4]: 0.5 µM
minimal effective concentration [2, 5]: ≤ 1 µM

CC(C)C[C@H]1C(=O)O[C@H](Cc2ccc([C@H](O)c3sccc3Br)cc2)C(=O)N(C)[C@@H](CC(C)C)C(=O)O[C@H](C)C(=O)N(C)[C@@H](CC(C)C)C(=O)O[C@H](Cc2ccc([C@@H](O)c3sccc3Br)cc2)C(=O)N(C)[C@@H](CC(C)C)C(=O)O[C@H](C)C(=O)N1C [Example 3-132, (3S,6R,9S,12R,15S,18R,21S,24R)-6-(4-((R)-(3-bromothiophen-2-yl)(hydroxy)methyl)benzyl)-18-(4-((S)-(3-bromothiophen-2-yl)(hydroxy)methyl)benzyl)-3,9,15,21-tetraisobutyl-4,10,12,16,22,24-hexamethyl-1,7,13,19-tetraoxa-4,10,16,22-tetraazacyclotetracosan-2,5,8,11,14,17,20,23-octaone]
minimal effective concentration [1]: 0.01 µM
minimal effective concentration (D. immitis L4 larvae): 0.0004 µM
DiMf/DiL4 (D. immitis L4 larvae): 25
minimal effective concentration [2, 4]: > 10 µM

CC(C)C[C@H]1C(=O)O[C@H](Cc2ccc(Cc3ccns3)cc2)C(=O)N(C)[C@@H](CC(C)C)C(=O)O[C@H](C)C(=O)N(C)[C@@H](CC(C)C)C(=O)O[C@H](Cc2ccc(Cc3ccns3)cc2)C(=O)N(C)[C@@H](CC(C)C)C(=O)O[C@H](C)C(=O)N1C [Example 3-156, (3S,6R,9S,12R,15S,18R,21S,24R)-3,9,15,21-tetraisobutyl-6,18-bis(4-(isothiazol-5-ylmethyl)benzyl)-4,10,12,16,22,24-hexamethyl-1,7,13,19-tetraoxa-4,10,16,22-tetraazacyclotetracosan-2,5,8,11,14,17,20,23-octaone]
minimal effective concentration [1]: 0.0005 µM
minimal effective concentration (D. immitis L4 larvae): 0.0001 µM
DiMf/DiL4 (D. immitis L4 larvae): 5
minimal effective concentration [2, 4]: 5.6 µM

CC(C)C[C@H]1C(=O)O[C@H](Cc2ccc(Cc3ccnn3C3CC3)cc2)C(=O)N(C)[C@@H](CC(C)C)C(=O)O[C@H](C)C(=O)N(C)[C@@H](CC(C)C)C(=O)O[C@H](Cc2ccc(Cc3ccnn3C3CC3)cc2)C(=O)N(C)[C@@H](CC(C)C)C(=O)O[C@H](C)C(=O)N1C [Example 3-268, (3S,6R,9S,12R,15S,18R,21S,24R)-6,18-bis(4-((1-cyclopropyl-1H-pyrazol-5-yl)methyl)benzyl)-3,9,15,21-tetraisobutyl-4,10,12,16,22,24-hexamethyl-1,7,13,19-tetraoxa-4,10,16,22-tetraazacyclotetracosan-2,5,8,11,14,17,20,23-octaone]
minimal effective concentration [1]: 0.002 µM
minimal effective concentration (D. immitis L4 larvae): 0.0005 µM
DiMf/DiL4 (D. immitis L4 larvae): 4
minimal effective concentration [2, 3]: < 1 µM
minimal effective concentration [2, 4]: 1 µM
minimal effective concentration [2, 5]: ≤ 1 µM

CC(C)C[C@H]1C(=O)O[C@H](Cc2ccc(Cc3occc3C#N)cc2)C(=O)N(C)[C@@H](CC(C)C)C(=O)O[C@H](C)C(=O)N(C)[C@@H](CC(C)C)C(=O)O[C@H](Cc2ccccc2)C(=O)N(C)[C@@H](CC(C)C)C(=O)O[C@H](C)C(=O)N1C [Example 4-40, 2-(4-(((2R,5S,8R,11S,14R,17S,20R,23S)-14-benzyl-5,11,17,23-tetraisobutyl-4,8,10,16,20,22-hexamethyl-3,6,9,12,15,18,21,24-octaoxo-1,7,13,19-tetraoxa-4,10,16,22-tetraazacyclotetracosan-2-yl)methyl)benzyl)furan-3-carbonitrile]
minimal effective concentration [1]: 0.0005 µM
minimal effective concentration (D. immitis L4 larvae): 0.0002 µM
DiMf/DiL4 (D. immitis L4 larvae): 2.5
minimal effective concentration [2, 6]: < 1 µM
minimal effective concentration [2, 4]: 0.5 µM
minimal effective concentration [2, 5]: ≤ 1 µM

COc1ccccc1Cc1ccc(C[C@H]2OC(=O)[C@H](CC(C)C)N(C)C(=O)[C@@H](C)OC(=O)[C@H](CC(C)C)N(C)C(=O)[C@@H](Cc3ccc(Cc4ccccc4OC)cc3)OC(=O)[C@H](CC(C)C)N(C)C(=O)[C@@H](C)OC(=O)[C@H](CC(C)C)N(C)C2=O)cc1 [Example 1-11, (3S,6R,9S,12R,15S,18R,21S,24R)-3,9,15,21-tetraisobutyl-6,18-bis(4-(2-methoxybenzyl)benzyl)-4,10,12,16,22,24-hexamethyl-1,7,13,19-tetraoxa-4,10,16,22-tetraazacyclotetracosan-2,5,8,11,14,17,20,23-octaone]
minimal effective concentration [1]: 0.3 µM
minimal effective concentration (D. immitis L4 larvae): 0.001 µM
DiMf/DiL4 (D. immitis L4 larvae): 300
minimal effective concentration [2, 4]: > 10 µM

CC(C)C[C@H]1C(=O)O[C@H](Cc2ccc(Cc3ccc(F)cc3)cc2)C(=O)N(C)[C@@H](CC(C)C)C(=O)O[C@H](C)C(=O)N(C)[C@@H](CC(C)C)C(=O)O[C@H](Cc2ccccc2)C(=O)N(C)[C@@H](CC(C)C)C(=O)O[C@H](C)C(=O)N1C [Example 2-4, (3S,6R,9S,12R,15S,18R,21S,24R)-6-benzyl-18-(4-(4-fluorobenzyl)benzyl)-3,9,15,21-tetraisobutyl-4,10,12,16,22,24-hexamethyl-1,7,13,19-tetraoxa-4,10,16,22-tetraazacyclotetracosan-2,5,8,11,14,17,20,23-octaone]
minimal effective concentration [1]: 0.05 µM
minimal effective concentration (D. immitis L4 larvae): 0.0007 µM
DiMf/DiL4 (D. immitis L4 larvae): 71.4
minimal effective concentration [2, 6]: 1 to 3.3 µM
minimal effective concentration [2, 4]: 3.3 µM
